Patent US9550752B2, “Triazolinthione derivatives” (priority 2013, dated 2017)
Marks after values point to notes of the source that are not given here.

Details: method [a]: pH 2.7, 0.1% formic acid in water/acetonitrile; Table 2, formula (XXI)
In the case of `OC(Cc1ccncc1Cl)(Cn1cncn1)c1ccc2oc3ccccc3c2c1` (centres unmarked) [XXI-85], the LogP is reported as 2.40^[a].

Same assay, conditions: method [a]: pH 2.7; Table 3, formula (V)
Compound `CC(C)(C)C(=O)Cc1cccnc1` [Example V-19] has a LogP of 0.41.
Compound `O=C(Cc1ccc(Cl)nc1)C1(Cl)CC1` [Example V-6] has a LogP of 2.34.
In the case of `CCC(C)(CC)C(=O)Cc1ccncc1Cl` [Example V-17], the LogP is reported as 3.04^[a].
In the case of `O=C(Cc1cccnc1Cl)C(CF)(CF)CF` [Example V-25], the LogP is reported as 1.98^[a].
For `CC(C)(C)C(=O)Cc1cccnc1Cl` [Example V-16], the LogP was 2.34^[a].
For `CC(C)(C)C(=O)Cc1cnc2ccccc2c1` [Example V-14], the LogP was 1.60^[a].

Same assay, conditions: method [a]: pH 2.7; Table 4, formula (XII)
For `CC(C)C(C)(C)C1(Cc2ccnc(Cl)c2)CO1` (centres unmarked) [XII-21], the LogP was 3.94^[a].
In the case of `CC(C)C(C)(C)C1(Cc2ccncc2F)CO1` (centres unmarked) [XII-17], the LogP is reported as 3.19^[a].
With `CC(C)(C)C1(Cc2ccnc(Cl)c2F)CO1` (centres unmarked) [XII-46] the LogP was 3.37^[a].
In the case of `CCC(C)(C)C1(Cc2ccncc2Cl)CO1` (centres unmarked) [XII-34], the LogP is reported as 3.33^[a].
In the case of `CC(C)(C)C1(Cc2c(Cl)cncc2Cl)CO1` (centres unmarked) [XII-52], the LogP is reported as 3.89^[a].
With `CC(C)C(C)(C)C1(Cc2ccncc2Cl)CO1` (centres unmarked) [XII-30] the LogP was 3.75^[a].
In the case of `CCC(C)(C)C1(Cc2ccncc2F)CO1` (centres unmarked) [XII-15], the LogP is reported as 2.76^[a].
For `CCC(C)(C)C1(Cc2c(Cl)cncc2Cl)CO1` (centres unmarked) [XII-54], the LogP was 4.41^[a].
In the case of `CC(C)(C)C1(Cc2ccncc2F)CO1` (centres unmarked) [XII-12], the LogP is reported as 2.31^[a].
In the case of `CCC(C)(C)C1(Cc2ccnc(Cl)c2)CO1` (centres unmarked) [XII-18], the LogP is reported as 3.51^[a].
For `CC(C)(C)C1(Cc2cc(Cl)ncc2F)CO1` (centres unmarked) [XII-28], the LogP was 3.42^[a].
For `CCC(C)(C)C1(Cc2cc(Cl)ncc2F)CO1` (centres unmarked) [XII-27], the LogP was 3.89^[a].
With `CC(C)(C)C1(Cc2cc(F)ncc2Cl)CO1` (centres unmarked) [XII-38] the LogP was 3.65^[a].
With `CCCC(C)(C)C1(Cc2ccncc2Cl)CO1` (centres unmarked) [XII-57] the LogP was 2.03^[a].
For `CC(C)(C)C1(Cc2ncc(Cl)cc2Cl)CO1` (centres unmarked) [XII-6], the LogP was 4.06^[a].
`CC(C)(C)C1(Cc2cccnc2Cl)CO1` (centres unmarked) [XII-9] showed a LogP of 2.97.
With `CCC(C)(C)C1(Cc2cc(F)ncc2Cl)CO1` (centres unmarked) [XII-40] the LogP was 4.17^[a].

Same assay, conditions: method [b]: pH 7.8; Table 3, formula (V)
`CC(C)(C)C(=O)Cc1cccnc1` [Example V-19] showed a LogP of 1.71.
For `O=C(Cc1ccc(Cl)nc1)C1(Cl)CC1` [Example V-6], the LogP was 2.30.

Same assay, conditions: method [b]: pH 7.8; Table 4, formula (XII)
For `CC(C)(C)C1(Cc2cccnc2Cl)CO1` (centres unmarked) [XII-9], the LogP was 2.96.

Same assay, conditions: pH 2.7
With `OC(Cc1cc(Cl)ccn1)(Cn1cncn1)C1(Cl)CC1` (racemic) [XXI-52] the LogP was 2.02^[a].
In the case of `OC(Cc1ccc(F)cc1)(Cc1ccncc1Cl)Cn1cncn1` (centres unmarked) [XXI-80], the LogP is reported as 1.93^[a].
In the case of `CC(C)(C)C(O)(Cc1ccncc1Cl)Cn1cncn1` (centres unmarked) [XXI-11], the LogP is reported as 1.74^[a].
In the case of `CCC(C)(C)C(O)(Cc1ccncc1Cl)Cn1ncnc1S` (centres unmarked) [Example I-20], the LogP is reported as 2.50^[a].
For `CC(C)CCC(O)(Cc1ccncc1Cl)Cn1cncn1` (racemic) [XXI-128], the LogP was 2.00^[a].
With `OC(COc1ccc(F)cc1)(Cc1ccncc1Cl)Cn1cncn1` (centres unmarked) [XXI-84] the LogP was 1.86^[a].
For `Cc1ccnc(CC(O)(Cn2cncn2)C2(Cl)CC2)c1` (racemic) [XXI-57], the LogP was 0.52^[a].
In the case of `CC(C)(C)C(O)(Cc1c(Cl)cncc1Cl)Cn1cncn1` (racemic) [XXI-125], the LogP is reported as 2.34^[a].
With `CC(C)(C)C(O)(Cc1ccncc1F)Cn1ncnc1S` (centres unmarked) [Example I-18] the LogP was 1.79^[a].
For `CCC(C)(C)C(O)(Cc1ccncc1F)Cn1cncn1` (racemic) [XXI-104], the LogP was 1.73^[a].
In the case of `CC1(C(O)(Cc2cccnc2Cl)Cn2ncnc2S)CC1` (centres unmarked) [Example I-15], the LogP is reported as 2.14^[a].
For `OC(Cc1cc(Cl)ncc1F)(Cn1cncn1)c1ccc(Cl)nc1` (racemic) [XXI-47], the LogP was 1.60^[a].
With `CC(CF)(CF)C(O)(Cc1ccncc1F)Cn1ncnc1S` (centres unmarked) [Example I-22] the LogP was 1.58^[a].
With `OC(Cc1cc(Cl)ncc1F)(Cn1cncn1)C1(F)CC1` (racemic) [XXI-46] the LogP was 1.66^[a].
In the case of `OC(Cc1cc(Oc2ccc(Cl)cc2)nnc1Cl)(Cn1cncn1)C1(Cl)CC1` (racemic) [XXI-60], the LogP is reported as 3.08^[a].
For `OC(Cc1ccnc2ccccc12)(Cn1ncnc1S)C1(Cl)CC1` (centres unmarked) [Example I-12], the LogP was 1.37^[a].
In the case of `CC(C)(C)C(O)(Cc1cc(Cl)nc(Cl)c1)Cn1cncn1` (racemic) [XXI-106], the LogP is reported as 2.64^[a].
In the case of `OC(Cc1ccncc1F)(Cn1ncnc1S)C1(F)CC1` (centres unmarked) [Example I-21], the LogP is reported as 1.29^[a].
With `CC(C)(C)C(O)(Cc1ccnc(Cl)c1)Cn1cncn1` (racemic) [XXI-112] the LogP was 1.93^[a].
In the case of `OC(Cc1ccnc(Cl)c1Cl)(Cn1cncn1)C1(Cl)CC1` (centres unmarked) [XXI-87], the LogP is reported as 2.39^[a].
For `OC(Cc1cccnc1Cl)(Cn1ncnc1S)C1(Cl)CC1` (centres unmarked) [Example I-4], the LogP was 2.15^[a].
With `OC(Cc1nccnc1Br)(Cn1cncn1)C1(Cl)CC1` (centres unmarked) [XXI-76] the LogP was 1.96^[a].
For `OC(Cc1ccncc1Cl)(Cn1cncn1)C1(c2ccccc2)CC1` (centres unmarked) [XXI-83], the LogP was 2.23^[a].
With `OC(Cc1cccnc1F)(Cn1cncn1)C1(Cl)CC1` (racemic) [XXI-56] the LogP was 1.64^[a].
For `OC(Cc1ccccc1F)(Cc1cc(Cl)ncc1F)Cn1cncn1` (centres unmarked) [XXI-78], the LogP was 2.34^[a].
In the case of `CC(C)(C)C(O)(Cc1ccc2ccccc2n1)Cn1cncn1` (racemic) [XXI-105], the LogP is reported as 1.51^[a].
In the case of `OC(Cc1ncc(Cl)cc1Cl)(Cn1cncn1)C1(Cl)CC1` (racemic) [XXI-102], the LogP is reported as 2.88^[a].
For `CC(C)(C)C(O)(Cc1cccnc1Cl)Cn1ncnc1S` (centres unmarked) [Example I-1], the LogP was 2.31^[a].
For `OC(Cc1ccc(Cl)cn1)(Cn1cncn1)C1(Cl)CC1` (centres unmarked) [XXI-72], the LogP was 2.23^[a].
With `OC(Cc1cc(F)ncc1Cl)(Cn1cncn1)C1(Cl)CC1` (centres unmarked) [XXI-94] the LogP was 2.30^[a].
In the case of `OC(Cc1cncc(Oc2ccc(Cl)cc2)n1)(Cn1cncn1)C1(Cl)CC1` (racemic) [XXI-61], the LogP is reported as 2.88^[a].
With `CC(C)(C)C(O)(Cc1ccc(Cl)nc1)Cn1cncn1` (centres unmarked) [XXI-9] the LogP was 1.98^[a].
With `CC(C)(C)C(O)(Cc1cnc2ccccc2c1)Cn1cncn1` (centres unmarked) [XXI-8] the LogP was 1.18^[a].
In the case of `CC(CF)(CF)C(O)(Cc1ccnc(Cl)c1)Cn1cncn1` (racemic) [XXI-41], the LogP is reported as 1.66^[a].
For `CC(C)(C)C(O)(Cc1cc(Cl)ncc1F)Cn1cncn1` (racemic) [XXI-113], the LogP was 2.16^[a].
With `CCCCc1nc2ccccc2cc1CC(O)(Cn1ncnc1S)C(C)(C)C` (centres unmarked) [Example I-6] the LogP was 1.88^[a].
For `CC1(C(O)(Cc2ccncc2Cl)Cn2cncn2)CC1` (racemic) [XXI-54], the LogP was 1.57^[a].
For `OC(Cc1ccnc(Cl)c1F)(Cn1cncn1)C1(Cl)CC1` (racemic) [XXI-65], the LogP was 2.02^[a].
With `CCC(C)(C)C(O)(Cc1ccncc1Cl)Cn1cncn1` (centres unmarked) [XXI-12] the LogP was 2.13^[a].
With `OC(Cc1ccncc1F)(Cn1ncnc1S)C1(Cl)CC1` (centres unmarked) [Example I-19] the LogP was 1.65^[a].
For `OC(Cc1nccnc1I)(Cn1cncn1)C1(Cl)CC1` (racemic) [XXI-59], the LogP was 2.07^[a].
For `CC(C)(CCl)C(O)(Cc1ccncc1Cl)Cn1cncn1` (centres unmarked) [XXI-95], the LogP was 1.76^[a].
With `OC(Cc1ccnc(Cl)c1F)(Cn1cncn1)c1ccc(Cl)nc1` (centres unmarked) [XXI-91] the LogP was 1.23^[a].
With `OC(Cc1ccncn1)(Cn1cncn1)C1(Cl)CC1` (racemic) [XXI-55] the LogP was 1.10^[a].
With `CC(C)(C)C(O)(Cc1ccncc1Cl)Cn1ncnc1S` (centres unmarked) [Example I-2] the LogP was 2.14^[a].
With `OC(Cc1ccnc(Cl)c1)(Cn1cncn1)C1(Cl)CC1` (racemic) [XXI-44] the LogP was 1.76^[a].
With `CC(C)(C)C(O)(Cc1ccncc1F)Cn1cncn1` (racemic) [XXI-103] the LogP was 1.41^[a].
With `CC(C)(C)C(O)(Cc1cc(F)ncc1Cl)Cn1cncn1` (racemic) [XXI-126] the LogP was 2.39^[a].
In the case of `CC(C)(C)C(O)(Cc1cc(Cl)cc(Cl)n1)Cn1cncn1` (racemic) [XXI-108], the LogP is reported as 2.86^[a].
With `OC(Cc1ccnc(Cl)c1F)(Cn1cncn1)c1cccnc1Cl` (racemic) [XXI-64] the LogP was 1.54^[a].
For `Cc1cccc(CC(O)(Cn2cncn2)C2(Cl)CC2)n1` (racemic) [XXI-53], the LogP was 0.52^[a].
With `OC(Cc1cccc(Cl)c1)(Cc1ccnc(Cl)c1F)Cn1cncn1` (centres unmarked) [XXI-93] the LogP was 2.02^[a].
With `OC(Cc1ncnc(Cl)c1Cl)(Cn1cncn1)C1(Cl)CC1` (racemic) [XXI-62] the LogP was 2.28^[a].
In the case of `Cc1cc(C(O)(Cc2ccncc2Cl)Cn2cncn2)nn1C` (centres unmarked) [XXI-71], the LogP is reported as 0.84^[a].
For `OC(Cc1cc(Cl)ncc1F)(Cn1cncn1)c1cccnc1Cl` (racemic) [XXI-48], the LogP was 1.57^[a].
In the case of `CC(CF)(CF)C(O)(Cc1cc(Cl)ncc1F)Cn1cncn1` (racemic) [XXI-49], the LogP is reported as 1.89^[a].
With `CC(C)(C)C(O)(Cc1ccnc2ccccc12)Cn1ncnc1S` (centres unmarked) [Example I-9] the LogP was 1.59^[a].
In the case of `OC(Cc1cccc(Cl)c1)(Cc1cc(Cl)ncc1F)Cn1cncn1` (centres unmarked) [XXI-79], the LogP is reported as 2.69^[a].
In the case of `CCOC(=O)OC(Cc1cccnc1Cl)(Cn1cncn1)C(C)(C)C` (racemic) [XXI-121], the LogP is reported as 2.67^[a].
In the case of `OC(CCc1ccccc1Cl)(Cc1ccncc1Cl)Cn1cncn1` (centres unmarked) [XXI-73], the LogP is reported as 2.29^[a].
With `OC(Cc1ccnc(Cl)c1F)(Cn1cncn1)C1(F)CC1` (centres unmarked) [XXI-92] the LogP was 1.23^[a].
With `CC(C)(Oc1ccc(Cl)cc1)C(O)(Cc1ccncc1Cl)Cn1cncn1` (centres unmarked) [XXI-75] the LogP was 2.84^[a].
With `CC(C)(C)C(O)(Cc1cccc(Cl)n1)Cn1cncn1` (racemic) [XXI-110] the LogP was 2.30^[a].
For `Cc1cccc2cc(CC(O)(Cn3cncn3)C3(Cl)CC3)c(Cl)nc12` (centres unmarked) [XXI-89], the LogP was 3.53^[a].
For `COc1nccnc1CC(O)(Cn1cncn1)C1(Cl)CC1` (centres unmarked) [XXI-77], the LogP was 1.88^[a].
In the case of `CC1(C(O)(Cc2ccncc2Cl)Cn2ncnc2S)CC1` (centres unmarked) [Example I-16], the LogP is reported as 1.96^[a].
In the case of `CC(C)(C)C(O)(Cc1ccc(Cl)c(Cl)n1)Cn1cncn1` (racemic) [XXI-109], the LogP is reported as 2.78^[a].
For `OC(Cc1ccccc1F)(Cc1ccnc(Cl)c1F)Cn1cncn1` (centres unmarked) [XXI-90], the LogP was 1.73^[a].
In the case of `CC(C)(C)C(O)(Cc1cc(Cl)cc(Cl)n1)Cn1ncnc1S` (centres unmarked) [Example I-10], the LogP is reported as 3.07^[a].
For `OC(Cc1ccc(Cl)nc1Cl)(Cn1cncn1)C1(Cl)CC1` (racemic) [XXI-58], the LogP was 2.55^[a].
With `CC(C)(C)C(O)(Cc1nc(Cl)ccc1Cl)Cn1cncn1` (racemic) [XXI-130] the LogP was 2.82^[a].

Same assay, conditions: pH 7.8
For `CC(C)(C)C(O)(Cc1ccc(Cl)nc1)Cn1cncn1` (centres unmarked) [XXI-9], the LogP was 1.98^[b];.
In the case of `CC(C)(CCl)C(O)(Cc1ccncc1Cl)Cn1cncn1` (centres unmarked) [XXI-95], the LogP is reported as 1.96^[b];.
For `CCOC(=O)OC(Cc1cccnc1Cl)(Cn1cncn1)C(C)(C)C` (racemic) [XXI-121], the LogP was 2.56^[b];.
